Source: PubChem BioAssay AID2060495 (Molecular Pharmacology Branch, DTP, NCI, 2025)

System: 521955-158-R2-J5-PDC complex spheroid viability
Experiment: Anticancer human tumor 521955-158-R2-J5-PDC patient-derived pancreatic carcinoma cell line growth inhibition [GQUAD]
Details: for IC50: curve of first compound; for viability, T/C: stronger effect = lower value
Summary of the method: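 Viability of tumor cells grown as complex spheroids with endothelial and stromal cells, exposed to drug combinations. Top concentration at or near clinical Cmax (else 10 microM), diluted in half-log increments.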

[1] = second compound 0.0316 µM, first compound 0.0316 µM
[2] = second compound 0.0316 µM, first compound 0.1 µM
[3] = second compound 0.0316 µM, first compound 0.316 µM
[4] = second compound 0.0316 µM, first compound 1 µM
[5] = second compound 0.0316 µM, first compound 3.16 µM
[6] = second compound 0.0316 µM, first compound 10 µM
[7] = second compound 0.1 µM, first compound 0.0316 µM
[8] = second compound 0.1 µM, first compound 0.1 µM
[9] = second compound 0.1 µM, first compound 0.316 µM
[10] = second compound 0.1 µM, first compound 1 µM
[11] = second compound 0.1 µM, first compound 3.16 µM
[12] = second compound 0.1 µM, first compound 10 µM
[13] = second compound 0.316 µM, first compound 0.0316 µM
[14] = second compound 0.316 µM, first compound 0.1 µM
[15] = second compound 0.316 µM, first compound 0.316 µM
[16] = second compound 0.316 µM, first compound 1 µM
[17] = second compound 0.316 µM, first compound 3.16 µM
[18] = second compound 0.316 µM, first compound 10 µM
[19] = second compound 1 µM, first compound 0.0316 µM
[20] = second compound 1 µM, first compound 0.1 µM
[21] = second compound 1 µM, first compound 0.316 µM
[22] = second compound 1 µM, first compound 1 µM
[23] = second compound 1 µM, first compound 3.16 µM
[24] = second compound 1 µM, first compound 10 µM
[25] = second compound 3.16 µM, first compound 0.0316 µM
[26] = second compound 3.16 µM, first compound 0.1 µM
[27] = second compound 3.16 µM, first compound 0.316 µM
[28] = second compound 3.16 µM, first compound 1 µM
[29] = second compound 3.16 µM, first compound 3.16 µM
[30] = second compound 3.16 µM, first compound 10 µM
[31] = second compound 10 µM, first compound 0.0316 µM
[32] = second compound 10 µM, first compound 0.1 µM
[33] = second compound 10 µM, first compound 0.316 µM
[34] = second compound 10 µM, first compound 1 µM
[35] = second compound 10 µM, first compound 3.16 µM
[36] = second compound 10 µM, first compound 10 µM
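Also: spheroids exposed to agents for one week before reading.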
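For viability, T/C in this document: 100% = DMSO vehicle control viability.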

`O=c1[nH]cc(F)c(=O)[nH]1` + Cc1[nH]c2ccc(F)cc2c1-c1nc2c3cccnc3c3ncccc3c2[nH]1 gave an IC50 (second compound 0.0316 µM) of 3.72 µM, an IC50 (second compound 0.1 µM) of 4.88 µM and an IC50 (second compound 0.316 µM) of 3.09 µM. For the same molecule, the IC50 (second compound 1 µM) was 2.48 µM, the IC50 (second compound 3.16 µM) was 2.53 µM and the IC50 (second compound 10 µM) was 2.08 µM. It also gave a viability, T/C [1] of 110%, a viability, T/C [2] of 84.6% and a viability, T/C [3] of 76%. For the same molecule, the viability, T/C [4] was 96.7%, the viability, T/C [5] was 55% and the viability, T/C [6] was 19.6%. The viability, T/C [7] was 99.6%, the viability, T/C [8] was 97.1% and the viability, T/C [9] was 90.7%. For the same molecule, the viability, T/C [10] was 89.6%, the viability, T/C [11] was 67% and the viability, T/C [12] was 21.1%. For the same molecule, the viability, T/C [13] was 90.9%, the viability, T/C [14] was 94.3% and the viability, T/C [15] was 104%. It also gave a viability, T/C [16] of 97.8%, a viability, T/C [17] of 48.9% and a viability, T/C [18] of 16.2%. The viability, T/C [19] was 95.2%, the viability, T/C [20] was 114% and the viability, T/C [21] was 91.1%. For the same molecule, the viability, T/C [22] was 91.4%, the viability, T/C [23] was 38.9% and the viability, T/C [24] was 22%. For the same molecule, the viability, T/C [25] was 106%, the viability, T/C [26] was 97.2% and the viability, T/C [27] was 107%. For the same molecule, the viability, T/C [28] was 104%, the viability, T/C [29] was 37.1% and the viability, T/C [30] was 18.2%. For the same molecule, the viability, T/C [31] was 105%, the viability, T/C [32] was 104% and the viability, T/C [33] was 103%. The viability, T/C [34] was 88.5%, the viability, T/C [35] was 28% and the viability, T/C [36] was 19.3%.

Work on `Cc1[nH]c2ccccc2c1CCNCc1ccc(/C=C/C(=O)NO)cc1` + Cc1[nH]c2ccc(F)cc2c1-c1nc2c3cccnc3c3ncccc3c2[nH]1 yielded an IC50 (second compound 0.0316 µM) of 0.112 µM, an IC50 (second compound 0.1 µM) of 0.156 µM and an IC50 (second compound 0.316 µM) of 0.137 µM. It also gave an IC50 (second compound 1 µM) of 0.224 µM, an IC50 (second compound 3.16 µM) of 0.207 µM and an IC50 (second compound 10 µM) of 0.157 µM. For the same molecule, the viability, T/C (second compound 0.0316 µM, first compound 0.000999 µM) was 116%, the viability, T/C (second compound 0.0316 µM, first compound 0.00316 µM) was 120% and the viability, T/C (second compound 0.0316 µM, first compound 0.00999 µM) was 132%. It also gave a viability, T/C [1] of 102%, a viability, T/C (second compound 0.0316 µM, first compound 0.0999 µM) of 54.1% and a viability, T/C [3] of 23.1%. The viability, T/C (second compound 0.1 µM, first compound 0.000999 µM) was 106%, the viability, T/C (second compound 0.1 µM, first compound 0.00316 µM) was 109% and the viability, T/C (second compound 0.1 µM, first compound 0.00999 µM) was 122%. The viability, T/C [7] was 116%, the viability, T/C (second compound 0.1 µM, first compound 0.0999 µM) was 64.5% and the viability, T/C [9] was 27.3%. The viability, T/C (second compound 0.316 µM, first compound 0.000999 µM) was 96.4%, the viability, T/C (second compound 0.316 µM, first compound 0.00316 µM) was 108% and the viability, T/C (second compound 0.316 µM, first compound 0.00999 µM) was 117%. For the same molecule, the viability, T/C [13] was 114%, the viability, T/C (second compound 0.316 µM, first compound 0.0999 µM) was 58.3% and the viability, T/C [15] was 27.8%. The viability, T/C (second compound 1 µM, first compound 0.000999 µM) was 105%, the viability, T/C (second compound 1 µM, first compound 0.00316 µM) was 123% and the viability, T/C (second compound 1 µM, first compound 0.00999 µM) was 131%. It also gave a viability, T/C [19] of 106%, a viability, T/C (second compound 1 µM, first compound 0.0999 µM) of 102% and a viability, T/C [21] of 27.9%. The viability, T/C (second compound 3.16 µM, first compound 0.000999 µM) was 106%, the viability, T/C (second compound 3.16 µM, first compound 0.00316 µM) was 110% and the viability, T/C (second compound 3.16 µM, first compound 0.00999 µM) was 118%. For the same molecule, the viability, T/C [25] was 109%, the viability, T/C (second compound 3.16 µM, first compound 0.0999 µM) was 92% and the viability, T/C [27] was 25.6%. It also gave a viability, T/C (second compound 10 µM, first compound 0.000999 µM) of 92.4%, a viability, T/C (second compound 10 µM, first compound 0.00316 µM) of 105% and a viability, T/C (second compound 10 µM, first compound 0.00999 µM) of 110%. For the same molecule, the viability, T/C [31] was 115%, the viability, T/C (second compound 10 µM, first compound 0.0999 µM) was 66.3% and the viability, T/C [33] was 24.7%.

`C=CCn1c(=O)c2cnc(Nc3ccc(N4CCN(C)CC4)cc3)nc2n1-c1cccc(C(C)(C)O)n1` + CN(C)c1ccc(Nc2c3ccc(NC(=O)CCN4CCCC4)cc3nc3cc(NC(=O)CCN4CCCC4)ccc23)cc1 was tested, and the IC50 (second compound 0.0316 µM) was 0.189 µM, the IC50 (second compound 0.1 µM) was 0.208 µM and the IC50 (second compound 0.316 µM) was 0.188 µM. For the same molecule, the IC50 (second compound 1 µM) was 0.207 µM, the IC50 (second compound 3.16 µM) was 0.201 µM and the IC50 (second compound 10 µM) was 0.401 µM. For the same molecule, the viability, T/C [1] was 112%, the viability, T/C [2] was 76.5% and the viability, T/C [3] was 28.2%. It also gave a viability, T/C [4] of 16.8%, a viability, T/C [5] of 11.2% and a viability, T/C [6] of 13.4%. It also gave a viability, T/C [7] of 107%, a viability, T/C [8] of 85.7% and a viability, T/C [9] of 29.5%. It also gave a viability, T/C [10] of 15.5%, a viability, T/C [11] of 14.3% and a viability, T/C [12] of 12.2%. It also gave a viability, T/C [13] of 82.6%, a viability, T/C [14] of 80.7% and a viability, T/C [15] of 24.8%. It also gave a viability, T/C [16] of 11.6%, a viability, T/C [17] of 14% and a viability, T/C [18] of 15.2%. It also gave a viability, T/C [19] of 90.5%, a viability, T/C [20] of 85.2% and a viability, T/C [21] of 29.5%. For the same molecule, the viability, T/C [22] was 15.9%, the viability, T/C [23] was 13.4% and the viability, T/C [24] was 16.2%. The viability, T/C [25] was 84.6%, the viability, T/C [26] was 74.4% and the viability, T/C [27] was 33.7%. The viability, T/C [28] was 23.3%, the viability, T/C [29] was 18.6% and the viability, T/C [30] was 13.5%. For the same molecule, the viability, T/C [31] was 65.1%, the viability, T/C [32] was 67.6% and the viability, T/C [33] was 53.3%. It also gave a viability, T/C [34] of 31.6%, a viability, T/C [35] of 7.79% and a viability, T/C [36] of 1.53%.

For `CC1COCCN1c1cc(C2(S(C)(=N)=O)CC2)nc(-c2ccnc3[nH]ccc23)n1` (stereo not drawn) + Cc1[nH]c2ccc(F)cc2c1-c1nc2c3cccnc3c3ncccc3c2[nH]1, the IC50 (second compound 0.0316 µM) was 0.698 µM, the IC50 (second compound 0.1 µM) was 0.793 µM and the IC50 (second compound 0.316 µM) was 0.736 µM. It also gave an IC50 (second compound 1 µM) of 0.712 µM, an IC50 (second compound 3.16 µM) of 0.806 µM and an IC50 (second compound 10 µM) of 0.724 µM. It also gave a viability, T/C [1] of 113%, a viability, T/C [2] of 103% and a viability, T/C [3] of 114%. For the same molecule, the viability, T/C [4] was 22.6%, the viability, T/C [5] was 10.1% and the viability, T/C [6] was 11.7%. The viability, T/C [7] was 96.6%, the viability, T/C [8] was 109% and the viability, T/C [9] was 111%. For the same molecule, the viability, T/C [10] was 35.9%, the viability, T/C [11] was 8.56% and the viability, T/C [12] was 8.84%. For the same molecule, the viability, T/C [13] was 108%, the viability, T/C [14] was 91.7% and the viability, T/C [15] was 101%. The viability, T/C [16] was 31.7%, the viability, T/C [17] was 9.15% and the viability, T/C [18] was 10.3%. For the same molecule, the viability, T/C [19] was 93.2%, the viability, T/C [20] was 104% and the viability, T/C [21] was 117%. For the same molecule, the viability, T/C [22] was 27.1%, the viability, T/C [23] was 11.5% and the viability, T/C [24] was 11.7%. It also gave a viability, T/C [25] of 85.2%, a viability, T/C [26] of 105% and a viability, T/C [27] of 99.1%. The viability, T/C [28] was 39.3%, the viability, T/C [29] was 13.7% and the viability, T/C [30] was 8.99%. The viability, T/C [31] was 109%, the viability, T/C [32] was 105% and the viability, T/C [33] was 110%. It also gave a viability, T/C [34] of 27.4%, a viability, T/C [35] of 14.7% and a viability, T/C [36] of 10.9%.
